Like-named read-outs stand apart in the source and are kept apart here.
Columns and labels:
[1] = tested on: mono-methyl arginine in RKO cells; test: RKO Methylation Assay, In Cell Western (ICW) for mono-methyl arginine and DNA content; assay type: cell-based; conditions: Homo sapiens, RKO, 72 h
How it was run: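 RKO cells treated with compound for 72 hours at 37 °C, then methanol-fixed and stained overnight at 4 °C with anti-mono-methyl arginine antibody, plus DRAQ5 for DNA. Signal ratio from 700 and 800 nm infrared scans normalized to DMSO (minimum) and 20 μM reference compound (maximum); EC30 from triplicate curves.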

human PRMT6 = molecular target: T1, human PRMT6 (Homo sapiens, UniProt Q96LA8); test: PRMT6 Biochemical Assay (3H-SAM Flashplate, peptide substrate); conditions: Biochemical IC50 PRMT6, single experiment or average of multiple experiments
T1 construct: Flag-PRMT6-His; made in house; host or cells: HEK 293F cells (BacMam baculovirus)
How it was run: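 Flag-PRMT6-His, expressed in mammalian cells from a BacMam vector, was preincubated with compound for 30 min at room temperature in Bicine pH 7.6 buffer with TCEP, BSG and Tween 20. Reactions were started with ³H-SAM and a biotinylated histone H4 36-50 peptide, then stopped with cold SAM (400 uM final). Labeled peptide was captured on streptavidin Flashplates, counted, and fitted to a 3- or 4-parameter curve.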

[2] = RKO cells, 72 hours, mono-methyl arginine, percent activation, single experiment or average of multiple experiments, read-out: EC30 (In Cell Western data, Numerical)
[3] = read-out: EC30 (In Cell Western data, Numerical, μM)

T1 sequence (Q96LA8 with tags, fused parts or gaps): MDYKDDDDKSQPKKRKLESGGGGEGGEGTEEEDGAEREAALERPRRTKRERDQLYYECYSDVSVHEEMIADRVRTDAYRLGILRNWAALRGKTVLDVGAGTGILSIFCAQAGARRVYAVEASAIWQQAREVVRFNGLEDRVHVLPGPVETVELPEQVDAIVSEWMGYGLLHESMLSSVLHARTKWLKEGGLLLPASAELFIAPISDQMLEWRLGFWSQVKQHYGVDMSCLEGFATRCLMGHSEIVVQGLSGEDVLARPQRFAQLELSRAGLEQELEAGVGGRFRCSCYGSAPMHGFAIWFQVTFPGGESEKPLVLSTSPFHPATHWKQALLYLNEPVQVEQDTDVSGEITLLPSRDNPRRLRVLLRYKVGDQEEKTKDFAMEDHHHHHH

Row | SMILES | EC30 [1, 2] [µM] | IC50 (human PRMT6) [nM] | EC30 [1, 3] [µM]
1 | CNCCN(C)Cc1cn(C2CC2)nc1-c1ccc(F)cc1 [Compound 13] | > 20 | 271 | 
2 | CNCCN(C)Cc1cnn(C2CC2)c1-c1ccc(F)cc1 [Compound 14] | 3.35 | 27.7 | 
3 | CNCCN(C)Cc1cn(C(C)C)nc1-c1ccc(F)cc1 [Compound 15] | > 20 | 526 | 
4 | CNCCN(C)Cc1cnn(C(C)C)c1-c1ccc(F)cc1 [Compound 16] |  | 57.9 | > 20
5 | CNCCN(C)Cc1cn[nH]c1-c1ccc(C#N)cc1 [Compound 17] |  | 12.8 | > 20
6 | CNCCN(C)Cc1cn[nH]c1-c1cc(F)cc(F)c1 [Compound 18] |  | 13.6 | 
7 | CN(CCN)Cc1n[nH]cc1-c1ccc(C2CCOCC2)cc1 [Compound 145] | 1.95 | 60 | 
8 | COc1ccc(-c2n[nH]cc2CN(C)CCN)c(Cl)c1 [Compound 146] | 7.16 | 12.5 | 
9 | CN(CCN)Cc1c[nH]nc1-c1cc(C#N)ccc1Cl [Compound 147] | > 20 | 53.6 | 
10 | CN(CCN)Cc1c[nH]nc1-c1ccc(C(F)(F)F)cc1F [Compound 148] | 7.3 | 68.2 | 
11 | CN(CCN)Cc1c[nH]nc1-c1cccc(N(C)C)c1 [Compound 149] | 4.32 | 62.5 | 
12 | CCOC(=O)c1cccc(-c2n[nH]cc2CN(C)CCN)c1 [Compound 150] | 6.66 | 29 | 
13 | COc1cc(F)ccc1-c1n[nH]cc1CN(C)CCN [Compound 151] | 9.73 | 112 | 
14 | Cc1cc(F)ccc1-c1n[nH]cc1CN(C)CCN [Compound 152] | 5.78 | 22.7 | 
15 | COc1ccc(-c2n[nH]cc2CN(C)CCN)cc1 [Compound 153] | 1.39 | 11.6 | 
16 | COc1ccc(-c2n[nH]cc2CN(C)CCN)c(C(F)(F)F)c1 [Compound 154] | > 20 | 375 | 
17 | COc1ccc(-c2n[nH]cc2CN(C)CCN)c(C)c1 [Compound 155] | 10.6 | 22.3 | 
18 | CN(CCN)Cc1c[nH]nc1-c1cc(Cl)ccc1F [Compound 156] | 9.56 | 43.1 | 

Row | SMILES | EC30 [1, 2] [µM] | IC50 (human PRMT6) [nM] | EC30 [1, 3] [µM]
19 | COc1ccc(Cl)cc1-c1n[nH]cc1CN(C)CCN [Compound 157] | > 20 | 504 | 
20 | Cc1ccc(C#N)cc1-c1n[nH]cc1CN(C)CCN [Compound 158] | > 20 | 115 | 
21 | Cc1ccc(F)cc1-c1n[nH]cc1CN(C)CCN [Compound 159] | 8.56 | 27.3 | 
22 | COc1ccc(F)cc1-c1n[nH]cc1CN(C)CCN [Compound 160] | 17.7 | 191 | 
23 | Cc1ccccc1-c1n[nH]cc1CN(C)CCN [Compound 161] | 14.9 | 96.5 | 
24 | Cc1ccc(-c2n[nH]cc2CN(C)CCN)cc1 [Compound 162] | 1.34 | 7.71 | 
25 | CCN(C)C(=O)c1ccc(-c2n[nH]cc2CN(C)CCN)cc1 [Compound 163] | > 20 | 62.6 | 
26 | CC(C)CN(C)C(=O)c1ccc(-c2n[nH]cc2CN(C)CCN)cc1 [Compound 164] | 18.5 | 41.8 | 
27 | CCOc1ccc(-c2n[nH]cc2CN(C)CCN)cc1 [Compound 166] | 0.434 | 15.6 | 
28 | COCCOc1ccc(-c2n[nH]cc2CN(C)CCN)cc1 [Compound 167] | 0.845 | 17.4 | 
29 | Cc1[nH]nc(-c2ccc(F)cc2)c1CN(C)CCN [Compound 169] | > 20 | 85 | 
30 | CC(C)Cc1ccc(-c2c[nH]nc2CN(C)CCN)cc1 [Compound 170] | 1.39 | 59.3 | 
31 | NCCN(CCO)Cc1c[nH]nc1-c1ccc(F)cc1 [Compound 171] | > 20 | 2420 | 
32 | CN(CCN)Cc1c[nH]nc1-c1ccc(OCCN2CCOCC2)cc1 [Compound 172] | > 20 | 26.4 | 
33 | CN(CCN)Cc1c[nH]nc1-c1ccc2c(c1)NC(=O)CO2 [Compound 173] | > 20 | 14.9 | 
34 | CNCCN(C)Cc1c[nH]nc1-c1ccc(C(F)(F)F)cc1 [Compound 174] | 0.26 | 15 | 
35 | CNCCN(C)Cc1c[nH]nc1-c1ccc(OC2CCOCC2)cc1 [Compound 175] | 0.174 | 12.5 | 
36 | CC(C)Oc1ccc(-c2nn(C)cc2CN(C)CCN)cc1 [Compound 176] | 0.882 | 67.3 | 

From patent US9776972B2, “Pyrazole derivatives as arginine methyltransferase inhibitors and uses thereof” (priority 2013, dated 2017)
